Assays:
downy mildew = experiment: Vineyard treatment of grapevine plants against downy mildew; type: in vivo, Plasmopara viticola; details: remaining plants of a vineyard of approximately 1000 grapevine plants; same number and times of applications; beginning of March to end of July
Experimental: The product obtained according to example 1 was diluted with water, mixing a part of product with ten parts of water and it was used to treat the grapevine plants.
The product thus diluted was applied by spraying on 70 grapevine plants arranged in 5 rows in a vineyard comprising approximately 1000 grapevine plants. The remaining plants were then treated with a conventional synthetic plant protection product (Metiram).
The treatments were carried out during the period between the beginning of March and the end of July, each time applying a quantity of 100 g of diluted product per plant. The same number of applications as those of the conventional plant protection product were carried out, at the same times.

corky bark = experiment: Vineyard treatment of grapevine plants against corky bark; type: in vivo; details: remaining plants (more than 500) of the same vineyard
Description: Finally, some preliminary experiments have shown that the product of the invention is effective not only against downy mildew infections but also against other plant diseases such as, in particular, corky bark, caused by the phytoplasm transmitted by the vector Scaphoideus titanus Ball, a Deltocefalinae plathopper.
In particular the product has been tested on 70 grapevine plants arranged on five rows in a vineyard wherein the remaining plants (more than 500) have been treated with a conventional synthetic plant protection product (Fenitrothion).

Row | Compound | plants showing obvious signs of downy mildew infestation (downy mildew) [%] | plants attacked by corky bark (corky bark)
1 | Metiram | 18 | –
2 | COP(=S)(OC)Oc1ccc([N+](=O)[O-])c(C)c1 [Fenitrothion] | – | majority
